This note sets out measurements from patent publication US8815934B2, “2-Phenyl-1-[4-(2-Aminoethoxy)-Benzyl]-Indole and estrogen formulations” (Wyeth LLC, priority 1998, dated 2014).

The assay concerns Female Sprague Dawley CD rats, ovx. As to the kind of experiment: 6-week ovariectomized rat model. The assay is classed as in vivo. The settings on record: 2 μg/rat s.c. daily, mean ± SEM. The source says:
Female Sprague Dawley CD rats, ovx or sham ovx, were obtained 1 day after surgery from Taconic Farm (weight range 240-275 g). They were housed 3 or 4 rats/cage in a room on a 14/10 (light/dark) schedule and provided with food (Purina 500 rat chow) and water ad libitum. Treatment for all studies began 1 day after the animals arrival and dosed 5 or 7 days per week as indicated for 6 weeks. A group of age matched sham operated rats not receiving any treatment served as an intact, estrogen replete control group for each study. All treatments were prepared in 1% […] in normal saline at defined concentrations so that the treatment volume was 0.1 mL/100 g body weight. 17-beta estradiol was dissolved in corn oil (20 uG/mL) and delivered subcutaneously; 0.1 mL/rat. All dosages were adjusted at three week intervals according to group mean body weight measurements.
Five weeks after the initiation of treatment and one week prior to the termination of the study, each rat was evaluated for bone mineral density (BMD). The BMD's of the proximal tibiae (PT) and fourth lumbar vertabrae (L4) were measured in anesthetized, rats using a dual energy X-ray absorptiometer (Eclipse XR-26, Norland Corp. Ft. Atkins, Wis.). […] Total choleserol is determined using a Boehringer-Mannheim Hitachi 911 clinical analyzer using the Cholesterol/HP kit. […]

`C[C@]12CC[C@@H]3c4ccc(O)cc4CC[C@H]3[C@@H]1CC[C@@H]2O` [17β-estradiol]: under “following 5 weeks of treatment”, the “BMD L4” value is reported as 0.169 ± 0.004 mg/cm^2. For the same compound, where the note is “following 6 weeks of treatment”, the Cholesterol came out at 95.5 ± 3.9 mg/dL.
